Measurements from publication PMC12040169 (PLOS Biology, 2025).

Experiment: in vitro
Details: human, hela cells, % viability

Compound	viability at 28.5 h, 10 µM
Cc1ccc(C2CCCN2C(=O)c2ccc(=O)n(CC(=O)Nc3ccc(F)cc3)c2)cc1C (stereo not drawn) [CBK286088]	107%
O=C(CN1CCC(c2cccc(Cc3cccc(F)c3)n2)CC1)Nc1nccs1 [CBK286090]	91.8%
Cc1noc(C)c1CC(=O)N1[C@H]2CCCCCN(C)[C@@]2(C)C[C@H]1c1ccccc1 [CBK286094]	85.8%
CC(C)c1ccc(C(C)NC(=O)Cn2cc(C(=O)NC3CCCCC3)ccc2=O)cc1 (stereo not drawn) [CBK286097]	100%
CCCn1cnc2cc(NC(=O)Cn3cc(C(=O)NC4CCCCC4)ccc3=O)ccc21 [CBK286098]	96.6%
O=C(Cn1cc(C(=O)NC2CCCCC2)ccc1=O)NCC1(c2ccccc2Cl)CC1 [CBK286101]	86.4%
COc1ccccc1-c1ccc(CN(C)Cc2ccccc2N2CCOCC2)cc1 [CBK286108]	90.6%
CN(C(=O)Cn1cccc(C(=O)NCC(C)(C)c2ccc(F)cc2)c1=O)C1CCCCC1 [CBK286112]	108%
Cc1nn(C)cc1S(=O)(=O)N1CCC(c2cccc(Cc3ccccc3Cl)n2)CC1 [CBK286115]	95.3%
CCn1ncc(S(=O)(=O)N2CCC(c3cccc(Cc4ccccc4C)n3)CC2)c1C [CBK286116]	91%
COc1ccc(CN2CCCc3c(C)nc(C4CCCN(C(=O)C5CCC5)C4)nc32)cc1 (stereo not drawn) [CBK286117]	95.1%
Cc1cc(N2CCC(c3cc(CCOc4ccc(Cl)cc4)[nH]n3)C2)nc(C)n1 (stereo not drawn) [CBK286119]	98.1%
Cc1ccc(Nc2nccc(C3CCCN(Cc4ccc5[nH]ccc5c4)C3)n2)nc1 (stereo not drawn) [CBK286122]	88%
COC(C)(C)C(=O)N1CCCC(c2ccc(Cc3cccc(C(F)(F)F)c3)cn2)C1 (stereo not drawn) [CBK286124]	107%
CC(=O)Nc1ccc(C(=O)N2CCCC(c3cccc(Cc4ccccc4Cl)n3)C2)cc1 (stereo not drawn) [CBK286126]	109%
CC(=O)Nc1cccc(-c2nccnc2C2CCCN(CCc3ccccc3)C2)c1 (stereo not drawn) [CBK286128]	110%
CC(C)c1ccc(OCCc2cc(C3CCN(C(=O)CC4CCCC4)C3)n[nH]2)cc1 (stereo not drawn) [CBK286129]	102%
Cc1ccc(C2(O)CCN(C(=O)CC3CCN(C(=O)CC4CCCCC4)CC3)C2)cc1 (stereo not drawn) [CBK286132]	96.9%
COc1ccc(CN2CCCC(c3nccnc3-c3cccc(NC(C)=O)c3)C2)cc1 (stereo not drawn) [CBK286135]	104%
O=S(=O)(c1ccc(F)cc1)N1CCCC(c2nccnc2-c2ccc(F)cc2)C1 (stereo not drawn) [CBK286136]	117%
COc1cccc(-c2nccnc2C2CCCN(S(=O)(=O)c3ccc(F)cc3)C2)c1 (stereo not drawn) [CBK286138]	108%

Compound	viability at 28.5 h, 10 µM
Cc1ccccc1Cc1cccc(C2CCN(S(=O)(=O)c3cn(C)nc3C)CC2)n1 [CBK286141]	86.7%
O=C(c1ccc(F)cc1)N1CCCC(c2nccnc2-c2cccc(C(F)(F)F)c2)C1 (stereo not drawn) [CBK286142]	98.3%
COc1ccccc1-c1cccc(C2CCCN(C(=O)Cc3c[nH]c4ccccc34)C2)n1 (stereo not drawn) [CBK286143]	100%
CC(=O)Nc1ccc(C(=O)N2CCCC2c2cccc(Cc3ccc(Cl)cc3)n2)cc1 (stereo not drawn) [CBK286144]	110%
Cc1ncsc1C(=O)N1CCC(c2cccc(Cc3ccccc3Cl)n2)CC1 [CBK286146]	99.2%
Cc1ccccc1-c1cncc(C2CCN(C(=O)Cc3c[nH]c4ccccc34)CC2)n1 [CBK286148]	79.4%
COc1cccc(-c2cncc(C3CCCN(Cc4ccc5[nH]ccc5c4)C3)n2)c1 (stereo not drawn) [CBK286151]	84.7%
Cc1ccc2cc(CNc3ccc(-c4nc5cc(C)ccc5[nH]4)cc3)c(O)nc2c1 [CBK286156]	70.8%
COc1ccc2cc(CNc3ccc(Oc4ccccc4)cc3)c(=O)[nH]c2c1 [CBK286158]	83.7%
COc1ccc2cc(CNc3ccc(CCc4nc5ccccc5n4C)cc3)c(=O)[nH]c2c1 [CBK286159]	103%
COc1ccc2[nH]c(=O)c(CNc3ccc(CCc4nc5ccccc5n4C)cc3)cc2c1 [CBK286162]	87.9%
c1ccc(CN2CCC(NCc3ccco3)C(c3ccccc3)C2)cc1 (stereo not drawn) [CBK286167]	95.4%
O=C(CN1C2CCC1CC(O)(c1ccco1)C2)N1c2ccccc2CCc2ccccc21 (stereo not drawn) [CBK286168]	94%
O=C(c1nc2ccccc2s1)C1CCN(C(=O)CCc2ccc(-c3ccccc3)o2)CC1 [CBK286170]	86.8%
CC[C@H](Cn1ncc2ccccc2c1=O)NC(=O)c1ccc2c(c1)Sc1ccccc1O2 [CBK286173]	81.3%
O=C(c1ccc(-c2ccc(F)cc2)o1)N1CCC(n2c(=O)oc3ccccc32)CC1 [CBK286175]	104%
COc1ccc(N2CCN(c3c(C)c(C)nc4cc(-c5nccn5C)nn34)CC2)cc1 [CBK286178]	85.1%
COc1ccc(C(=O)Cn2nc3nnc(-c4ccccc4)c(-c4ccccc4)n3c2=O)cc1 [CBK286181]	83.4%
COc1ccccc1N1CCN(c2c(C)c(C)nc3cc(-c4nccn4C)nn23)CC1 [CBK286182]	87.5%
O=C(Cc1ccc(-c2ccccc2)cc1)N1CCC2(CC1)Nc1ccccc1S(=O)(=O)N2 [CBK286189]	79.2%
CCC1Oc2ccc(C(O)c3ccco3)cc2N(Cc2cccc(OC)c2)C1=O (stereo not drawn) [CBK286190]	89.7%

Compound	viability at 28.5 h, 10 µM
COc1cc2c(cc1OC)C1c3ccccc3N(Cn3nnc4ccccc43)C(=O)N1CC2 (stereo not drawn) [CBK286193]	84.2%
Cc1ccc2c(c1)oc(=O)n2CCNC(=O)CC1c2ccccc2Oc2ccccc21 [CBK286194]	94.8%
c1ccc(-c2nnc(-c3ccco3)c(-c3ccco3)n2)cc1 [CBK286196]	83.7%
O=C(NCCn1c(=O)oc2ccccc21)C(c1cccs1)c1cccs1 [CBK286198]	99.8%
CC(=O)N1CCc2sccc2C1c1ccc(NC(=O)c2ccco2)cc1 (stereo not drawn) [CBK286199]	102%
CN(C)c1ccc(NC(=O)CN2C(=O)[C@H]3CCCN3c3ncccc32)cc1 [CBK286202]	118%
O=C(CN1C(=O)[C@@H]2CCCN2c2ncccc21)NC1CCCCC1 [CBK286204]	116%
COc1cccc(-c2cccc(C3CCCN(C(=O)Cc4c[nH]c5ccccc45)C3)n2)c1 (stereo not drawn) [CBK286207]	114%
O=C(COc1ccccc1)N1CCC(c2cccc(Cc3ccccc3F)n2)CC1 [CBK286211]	104%
COc1ccc(CCC(=O)N2CCC(c3cccc(Cc4cccc(F)c4)n3)CC2)cc1 [CBK286212]	105%
O=C(Cc1ccc(F)cc1)N1CCC(c2cccc(Cc3ccccc3F)n2)CC1 [CBK286213]	117%
O=C(CN1CCCC1)N1CCC(c2cccc(Cc3ccc(C(F)(F)F)cc3)n2)CC1 [CBK286215]	106%
Cc1ncsc1C(=O)N1CCC(c2cccc(Cc3ccc(C(F)(F)F)cc3)n2)CC1 [CBK286216]	99.5%
COc1ccccc1-c1cccc(C2CCCN(C(=O)CCCc3ccccc3)C2)n1 (stereo not drawn) [CBK286217]	100%
O=C(c1ccccc1)N1CCCC(c2nccnc2-c2cccc(C(F)(F)F)c2)C1 (stereo not drawn) [CBK286218]	99.9%
O=C(CCc1ccccc1)N1CCC(c2cccc(Cc3cccc(F)c3)n2)CC1 [CBK286219]	97.5%
COc1ccc(CC(=O)N2CCCC2c2cccc(Cc3cccc(F)c3)n2)cc1 (stereo not drawn) [CBK286220]	108%
O=C(Cc1cccnc1)N1CCC(c2cccc(Cc3ccc(C(F)(F)F)cc3)n2)CC1 [CBK286223]	92.8%
COc1ccc(CC(=O)N2CCCC(c3nc(C)c4c(n3)N(CC3CC3)CCC4)C2)cc1 (stereo not drawn) [CBK286228]	100%
COc1ccccc1Cc1cccc(C2CCCN2C(=O)CCc2ccccc2)n1 (stereo not drawn) [CBK286229]	108%
O=C(COc1ccccc1)N1CCCC1c1cccc(Cc2ccc(F)cc2)n1 (stereo not drawn) [CBK286230]	102%

Compound	viability at 28.5 h, 10 µM
O=C(Cc1ccc(F)cc1)N1CCCC1c1cccc(Cc2ccc(F)cc2)n1 (stereo not drawn) [CBK286234]	94.7%
O=C(COc1ccc(F)cc1)N1CCCC1c1cccc(Cc2ccc(F)cc2)n1 (stereo not drawn) [CBK286235]	99.3%
COc1ccccc1Cc1cccc(C2CCN(C(=O)c3ccccc3)CC2)n1 [CBK286236]	101%
Cc1cccc(Cc2cccc(C3CCCN(C(=O)c4ccc(=O)[nH]c4)C3)n2)c1 (stereo not drawn) [CBK286243]	95.9%
CCn1ncc(S(=O)(=O)N2CCCC(c3cccc(Cc4cccc(C)c4)n3)C2)c1C (stereo not drawn) [CBK286244]	97.7%
O=C(CCc1ccc(F)cc1)N1CCC(CC(=O)N2CCN(c3ccccc3)CC2)CC1 [CBK286245]	108%
CCC(=O)N1CCCC1c1nc(C)c2c(n1)N(Cc1ccc(F)cc1)CCC2 (stereo not drawn) [CBK286247]	104%
Cc1nc(C2CCCN2C(=O)CC2CCCC2)nc2c1CCCN2Cc1ccccn1 (stereo not drawn) [CBK286252]	105%
CN(C)c1ncc(-c2ccccc2)c(C2CCCN2Cc2ccc3ncccc3c2)n1 (stereo not drawn) [CBK286256]	77.6%
Cc1nc(C2CCCN(C(=O)C3CCC3)C2)nc2c1CCCN2Cc1ccccc1 (stereo not drawn) [CBK286257]	78.2%
CCCn1cc(S(=O)(=O)N2CCCC2c2ccc(Nc3cccc(C)n3)cn2)c(C)n1 (stereo not drawn) [CBK286258]	77.6%
CN(Cc1ccc2ncccc2c1)C(=O)CC1CCN(CCc2ccccc2)CC1 [CBK286261]	108%
Cc1cc(Cc2ccccc2Cl)cc(C2CCCN(CC(=O)N(C)C)C2)n1 (stereo not drawn) [CBK286262]	87.6%
COc1ccc(C2CCCN2C(=O)CC2CCN(C(=O)CC3CCCCC3)CC2)cc1 (stereo not drawn) [CBK286263]	102%
COc1cccc(C2CCCN2C(=O)CC2CCN(C(=O)CC3CCCCC3)CC2)c1 (stereo not drawn) [CBK286264]	98.4%
CN(CC1COc2ccccc2O1)C(=O)CC1CCN(C(=O)CC2CCCCC2)CC1 (stereo not drawn) [CBK286265]	92.7%
O=C(CC1CCN(C(=O)c2ccc3nsnc3c2)CC1)N1CCN(c2ccccc2)CC1 [CBK286266]	85.9%
O=C(CC1CCCC1)N1CCC(c2cc(CCOc3cccc(C(F)(F)F)c3)[nH]n2)C1 (stereo not drawn) [CBK286267]	89.4%
